Laboratory results from publication PMC3954497 (Journal of Medicinal Chemistry, 2014).

Key:
SERT = SERT (Rattus norvegicus, UniProt P31652); type: binding; settings: for displacement at the SERT: rat brain membranes; for increase in SERT affinity vs unsubstituted analogue: 4i vs 4g, 6c vs 6a
NET = NET (Rattus norvegicus, UniProt Q63380); test: biochemical; type: binding; settings: 3 h, read-out: Ki [SE interval] NET
DAT = DAT (Rattus norvegicus, UniProt P23977); type: binding; settings: for improvement in DAT affinity vs unsubstituted analogue: 4i vs 4g, 6c vs 6a
DAT, sequence (P23977 whole entry): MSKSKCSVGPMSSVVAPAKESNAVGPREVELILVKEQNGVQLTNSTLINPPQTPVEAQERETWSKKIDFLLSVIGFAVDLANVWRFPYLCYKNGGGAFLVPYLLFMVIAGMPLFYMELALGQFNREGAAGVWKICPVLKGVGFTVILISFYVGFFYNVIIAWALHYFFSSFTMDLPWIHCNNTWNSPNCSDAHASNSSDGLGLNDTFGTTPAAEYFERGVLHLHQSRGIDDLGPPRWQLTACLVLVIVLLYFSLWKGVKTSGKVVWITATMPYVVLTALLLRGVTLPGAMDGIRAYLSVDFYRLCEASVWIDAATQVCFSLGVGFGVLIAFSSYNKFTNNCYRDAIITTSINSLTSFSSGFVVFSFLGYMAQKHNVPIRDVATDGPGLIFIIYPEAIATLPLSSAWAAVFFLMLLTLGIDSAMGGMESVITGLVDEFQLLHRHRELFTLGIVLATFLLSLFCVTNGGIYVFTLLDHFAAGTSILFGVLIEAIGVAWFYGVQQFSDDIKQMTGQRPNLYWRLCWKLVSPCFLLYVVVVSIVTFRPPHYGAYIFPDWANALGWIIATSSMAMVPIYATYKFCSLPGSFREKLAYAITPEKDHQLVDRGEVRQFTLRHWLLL

NCCc1c[nH]c2ccc(O)cc12 = test: cells, lysate or membranes; settings: pH 7.4; 37.0 °C

NET, sequence (Q63380 1-617): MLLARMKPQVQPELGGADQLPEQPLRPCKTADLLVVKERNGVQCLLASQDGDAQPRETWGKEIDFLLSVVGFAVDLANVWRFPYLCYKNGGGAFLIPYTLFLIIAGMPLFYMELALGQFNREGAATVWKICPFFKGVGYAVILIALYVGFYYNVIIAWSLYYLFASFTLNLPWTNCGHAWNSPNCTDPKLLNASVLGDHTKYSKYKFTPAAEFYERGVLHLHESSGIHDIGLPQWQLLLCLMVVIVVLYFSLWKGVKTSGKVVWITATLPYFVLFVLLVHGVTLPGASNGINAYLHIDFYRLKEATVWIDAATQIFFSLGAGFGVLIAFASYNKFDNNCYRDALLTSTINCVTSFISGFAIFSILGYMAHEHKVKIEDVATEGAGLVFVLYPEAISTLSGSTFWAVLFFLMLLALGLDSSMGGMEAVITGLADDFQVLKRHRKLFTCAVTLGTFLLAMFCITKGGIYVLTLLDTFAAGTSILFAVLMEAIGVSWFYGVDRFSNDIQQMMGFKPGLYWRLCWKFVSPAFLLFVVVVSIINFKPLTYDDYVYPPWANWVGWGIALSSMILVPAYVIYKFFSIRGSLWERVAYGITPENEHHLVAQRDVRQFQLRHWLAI
SERT, sequence (P31652 whole entry): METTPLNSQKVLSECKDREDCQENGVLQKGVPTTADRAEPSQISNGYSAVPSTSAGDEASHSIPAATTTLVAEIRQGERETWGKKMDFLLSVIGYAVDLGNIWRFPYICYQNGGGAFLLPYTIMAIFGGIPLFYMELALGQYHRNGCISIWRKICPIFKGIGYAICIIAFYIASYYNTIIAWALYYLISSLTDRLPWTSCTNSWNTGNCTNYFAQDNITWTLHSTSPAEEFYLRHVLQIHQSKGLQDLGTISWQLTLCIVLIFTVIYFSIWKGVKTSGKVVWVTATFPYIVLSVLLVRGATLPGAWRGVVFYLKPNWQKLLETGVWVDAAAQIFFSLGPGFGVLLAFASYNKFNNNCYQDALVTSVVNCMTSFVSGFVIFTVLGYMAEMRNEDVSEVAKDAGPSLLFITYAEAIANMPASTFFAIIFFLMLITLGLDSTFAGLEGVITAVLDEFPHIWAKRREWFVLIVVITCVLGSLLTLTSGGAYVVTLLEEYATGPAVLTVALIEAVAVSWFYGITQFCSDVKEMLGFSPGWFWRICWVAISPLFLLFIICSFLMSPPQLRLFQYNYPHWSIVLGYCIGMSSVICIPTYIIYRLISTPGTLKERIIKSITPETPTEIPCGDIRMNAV

In the case of `NC(=O)C[S+]([O-])C(c1ccccc1)c1cccc(Br)c1` (stereo not drawn) [5e, 2-(((3-Bromophenyl)phenylmethyl)sulfinyl)acetamide], the “displacement at the SERT” value (SERT) is reported as “no displacement” and the inhibition (NET) is reported as under 50%.
For `CCCCNC(=O)CSC(c1ccccc1)c1ccccc1` [4r, 2-(Benzhydrylthio)-N-butylacetamide], the inhibition (NET) was under 50%.
`CNC(=O)C[S+]([O-])C(c1ccccc1)c1ccccc1` (stereo not drawn) [5f, 2-(Benzhydrylsulfinyl)-N-methylacetamide] showed an inhibition (NET) of under 50%.
For `O=C(CSC(c1ccccc1)c1ccccc1)NCCCc1ccccc1` [4u, 2-(Benzhydrylthio)-N-(3-phenylpropyl)acetamide], the inhibition at 100 µM (NET) was under 50%.
Compound `O=C(CSC(c1ccccc1)c1ccccc1)NCC1CC1` [4o, 2-(Benzhydrylthio)-N-(cyclopropylmethyl)acetamide] has an inhibition (NET) of under 50%.
`O=C(CSC(c1ccc(Br)cc1)c1ccc(Br)cc1)NCC1CC1` [4q, 2-((Bis(4-bromophenyl)methyl)thio)-N-(cyclopropylmethyl)acetamide] gave an inhibition (NET) of under 50%.
Work on `O=C(CSC(c1ccc(F)cc1)c1ccc(F)cc1)NCCCc1ccccc1` [4v, 2-((Bis(4-fluorophenyl)methyl)thio)-N-(3-phenylpropyl)acetamide] yielded an inhibition at 100 µM (NET) of under 50%.
`C=CCNC(=O)CSC(c1ccccc1)c1ccccc1` [4j, N-Allyl-2-(benzhydrylthio)acetamide] showed an inhibition (NET) of under 50%.
For `NCCSC(c1ccccc1)c1ccccc1` [6a, 2-(Benzhydrylthio)ethan-1-amine], the “improved DAT affinity compared to (±)-1” value (DAT) was “about 20 fold”.
`Cc1ccc(C(c2ccc(C)cc2)[S+]([O-])CC(N)=O)cc1` (stereo not drawn) [5a, 2-((Di-p-tolylmethyl)sulfinyl)acetamide] was tested, and the inhibition (NET) was under 50%.
`NC(=O)C[S+]([O-])C(c1cccc(F)c1)c1cccc(F)c1` (stereo not drawn) [5c, 2-((Bis(3-fluorophenyl)methyl)sulfinyl)acetamide] showed an inhibition (NET) of under 50%.
For `O=C(CSC(c1ccc(Cl)cc1)c1ccc(Cl)cc1)NCCCc1ccccc1` [4w, 2-((Bis(4-chlorophenyl)methyl)thio)-N-(3-phenylpropyl)acetamide], the “displacement at the SERT” value (SERT) was “no displacement” and the inhibition at 100 µM (NET) was under 50%.
In the case of `CNC(=O)CSC(c1ccc(Br)cc1)c1ccc(Br)cc1` [4i, 2-((Bis(4-bromophenyl)methyl)thio)-N-methylacetamide], the “improvement in DAT affinity vs unsubstituted analogue” value (DAT) is reported as 6 fold and the “increase in SERT affinity vs unsubstituted analogue” value (SERT) is reported as over 50 fold.
For hSERT-WT (Homo sapiens), the Km (NCCc1c[nH]c2ccc(O)cc12) was 520 [360–760] nM.
For `O=C(CSC(c1ccc(Br)cc1)c1ccc(Br)cc1)NCCCCc1ccccc1` [4z, 2-((Bis(4-bromophenyl)methyl)thio)-N-(4-phenylbutyl)acetamide], the “displacement at the SERT” value (SERT) was “no displacement” and the inhibition at 100 µM (NET) was under 50%.
In the case of `NCCSC(c1ccc(Br)cc1)c1ccc(Br)cc1` [6c, 2-((Bis(4-bromophenyl)methyl)thio)ethan-1-amine], the “improvement in DAT affinity vs unsubstituted analogue” value (DAT) is reported as 3 fold and the “increase in SERT affinity vs unsubstituted analogue” value (SERT) is reported as 9 fold.
Work on `NC(=O)CSC(c1ccccc1)c1ccccc1` [4a, 2-(Benzhydrylthio)acetamide] yielded an inhibition (NET) of under 50%.
For `NC(=O)C[S+]([O-])C(c1cccc(Cl)c1)c1cccc(Cl)c1` (stereo not drawn) [5d, 2-((Bis(3-chlorophenyl)methyl)sulfinyl)acetamide], the inhibition (NET) was under 50%.
`O=C(C[S+]([O-])C(c1ccc(Br)cc1)c1ccc(Br)cc1)NCCCc1ccccc1` (stereo not drawn) [5g, 2-((Bis(4-bromophenyl)methyl)sulfinyl)-N-(3-phenylpropyl)acetamide] showed an inhibition at 100 µM (NET) of under 50%.
